The assay deals with MC38-HER-2 cells. The note with it: mouse, in vivo.

SMILES strings stand for the structures.

With `CC(=O)O[C@@]12CO[C@@H]1C[C@H](O)[C@@]1(C)C(=O)[C@H](O)C3=C(C)[C@@H](OC(=O)[C@H](O)[C@@H](NC(=O)OC(C)(C)C)c4ccccc4)C[C@@](O)([C@@H](OC(=O)c4ccccc4)[C@H]21)C3(C)C` [Docetaxel, docetaxel], the “tumor growth, subset A” value was “modest and transient delay of tumor growth”; the “tumor growth, subset B” value is listed as “had no effect on tumor growth”; the “tumor growth, subset C” value was “had no effect on tumor growth”.
